Reference: patent publication US20130041005A1, “PHARMACEUTICAL COMPOSITIONS COMPRISING NEUROPILIN INHIBITORS, AND THEIR USE FOR THE PREVENTION AND/OR TREATMENT OF ANGIOGENIC DISORDERS AND CANCERS” (TRAGEX PHARMA, priority 2011, published 2013)
“Also recorded” adds a separate entry of the source.

Assays:
Assay type in all cases: cell-based
OPM-2 = assay: WST-1 proliferation assay, OPM-2; settings: Homo sapiens; Myeloma OPM-2; read-out: Anti-proliferative activity IC50 (μM) ± SD
Description: All the cancer cell lines were maintained in cultured in DMEM GlutaMAX™ (GIBCO Invitrogen, France, cat no 31966047) enhanced with 10% foetal bovine serum (GIBCO Invitrogen, France, cat no 10270-106) and 1% penicillin G/streptomycin (GIBCO Invitrogen, France, cat no 15140-122). Only Panc-10.5 cells were cultivated in RPMI 1640 medium (Gibco) supplemented with 2 mM L-glutamine, 1.5 g/L sodium bicarbonate, 4.5 g/L glucose, 10 mM HEPES, 1 mM sodium pyruvate, 10 Units/ml human insulin, […] (SVF): 15% (75 ml in 500 ml of medium).
Cells were grown as subconfluent monolayer and cultured in 75 cm^2 flasks at 37° C., 5% CO2 in a humidified atmosphere, and medium was changed every two days. […]
The cell proliferation WST-1 assay is a colorimetric assay for the quantification of cell proliferation and viability, based on the enzymatic cleavage of the tetrazolium salt WST-1 added to the culture medium, to a water soluble colored formazan dye, detected by absorbance at 450 nm, by mitochondrial succinate-tetrazolium reductase in viable cells. […]
After an incubation period of 72 h, at day 4, were prepared the 19 ml medium with reagent WST-1 1 ml ([…]). […] The cells were incubated at 37° C. in a humidified atmosphere of 5% CO2 for 1 h 30 and the absorbance at 450-655 nm was measured by Microplate Manager 5.2 (Bio-Rad).

[1] = system: endothelial (HUVEC) cells; assay: Apoptosis assay (Annexin V-FITC/PI), HUVEC; settings: IC50 concentration, 72 h (FIG. 2B)
Description: The level of apoptosis in endothelial (HUVEC) and breast cancer cells (MDA-MB-231) was detected by Annexin V-FITC Apoptosis Detection Kit (ref 556547, BD Biosciences, France) according to the manufacturer's instructions. Briefly, HUVEC and MDA-MB-231 cells were treated separately with DMSO (control) and the compounds of the invention at the concentration corresponding to the IC50, obtained by the proliferation assay, for 72 h. After treatment, all cell including both detached and attached cells were collected, centrifugated at 14000 rpm for 5 min and the apoptotic cells were detected by staining with Annexin V-FITC and (propidium iodide) PI. The cells were resuspended in 100 μl Annexin V binding buffer (10 mM Hepes/NaOH, pH 7.4, 140 mM NaCl, […]) containing 5 μl of Annexin V-FITC and 5 μl of PI (propidium iodide). Samples were gently mixed and incubated for 2 h on ice and in the dark. Viable and apoptotic cell were detected by flow citometry (FACS Calibur Becton Dickinson, France). Apoptotic cells include both the early apoptotic portion (Annexin V-positive) and the late apoptotic portion (Annexin V- and PI-positive). Staurosporine is used as a positive control of apoptosis induction.

HUVEC = assay: Tube maintenance assay; settings: VEGF-A165-treated HUVEC in collagen, 24 h treatment (FIG. 3C)
Description: A 96-well plate was coated with 70 μl of collagen/media solution (NaOH 0.1N, 48 μL 10× Na2HCO3 and 0.5 mL EBM2) and allowed to solidify at 37° C. for 3 min. HUVEC were seeded at a density of 8×10^5 cells for well in 100 μl complete culture medium. After confluent monolayer formation, a second collagen gel layer with EBM2 supplemented with 50 ng/ml of VEGF-A165 was added over cells and plates were incubated for 24 h at 37° C. and 5% CO2 to allow tube formation.

Row | Compound | IC50 (OPM-2) [µM] | induction of apoptosis in endothelial cells [1] | maintenance of new blood vessels (tube maintenance) (HUVEC)
1 | Cc1ccc(-c2nc3ccccc3[nH]2)cc1NC(=S)NC(=O)c1ccc2c(c1)OCCO2 [Compound 1, N-[5-(1H-benzimidazol-2-yl)-2-methylphenyl]-N′-(2,3-dihydro-1,4-benzodioxin-6-ylcarbonyl)thiourea] | 2.5 ± 0.09 | induced the apoptosis; also recorded: induction of apoptosis | effectively inhibited
2 | O=C(NC(=S)Nc1cccc(-c2nc3ccccc3[nH]2)c1)c1ccc2c(c1)OCCO2 [Compound 2, N-[3-(1H-benzimidazol-2-yl)phenyl]-N′-(2,3-dihydro-1,4-benzodioxin-6-ylcarbonyl)thiourea] | 0.5 ± 0.01 | induced the apoptosis; also recorded: induction of apoptosis | effectively inhibited
